Test results published in paper PMC9516332 (Frontiers in Oncology, 2022).
Where two headings read alike, the source gives them in different places.

Key:
134 cancer cell lines = test: Cell viability assay (ATPlite, 72 hours), IC50 on cancer cell line panel
[1] = target: T1, panel of 255 wild-type kinases (Homo sapiens, UniProt Q8IW41); test: Kinase panel profiling at 1 µmol/L (MSA or IMAP), percentage inhibition; format: biochemical; conditions: MAPKAPK5; 1 µmol/L single concentration; read-out: %-inhibition, MAPKAPK5
T1 sequence (Q8IW41 1-473): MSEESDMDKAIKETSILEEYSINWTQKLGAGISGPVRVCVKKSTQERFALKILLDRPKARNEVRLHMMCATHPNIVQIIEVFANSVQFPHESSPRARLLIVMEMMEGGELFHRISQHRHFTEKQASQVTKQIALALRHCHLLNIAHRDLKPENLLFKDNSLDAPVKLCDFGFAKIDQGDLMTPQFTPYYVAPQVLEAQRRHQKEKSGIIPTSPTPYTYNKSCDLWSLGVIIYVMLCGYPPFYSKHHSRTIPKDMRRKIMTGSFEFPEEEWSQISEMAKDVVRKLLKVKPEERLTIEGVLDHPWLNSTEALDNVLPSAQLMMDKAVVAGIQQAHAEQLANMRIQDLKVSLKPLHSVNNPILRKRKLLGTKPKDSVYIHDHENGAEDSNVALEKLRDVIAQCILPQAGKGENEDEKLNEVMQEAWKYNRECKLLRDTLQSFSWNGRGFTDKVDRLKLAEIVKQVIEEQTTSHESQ

[2] = target: panel of 255 wild-type kinases (Homo sapiens, UniProt P45983); test: as above; format: biochemical; conditions: kinase JNK1; 1 µmol/L single concentration; read-out: %-inhibition at 1 µmol/L, JNK1
AP-1060 (ETV6-NTRK3) = test: Cell viability assay; conditions: read-out: IC50 in cell proliferation assay

IC50 (134 cancer cell lines; Homo sapiens, MeWo, read-out: IC50 in cell proliferation assay, MeWo cell line): 5.4 µM | IC50 (134 cancer cell lines; Homo sapiens, NCCIT, read-out: IC50 in cell proliferation assay, NCC-IT cell line): 25.9 µM | IC50 (134 cancer cell lines; Homo sapiens, NCI-H82, read-out: IC50 in cell proliferation assay, cell line NCI-H82): 6.84 µM | IC50 (134 cancer cell lines; Homo sapiens, NCI-H460, read-out: IC50 in cell proliferation assay, NCI-H460 cell line): 0.297 µM | IC50 (134 cancer cell lines; Homo sapiens, NCI-H661, read-out: IC50 in cell proliferation assay, NCI-H661 cell line): > 31.6 µM | IC50 (134 cancer cell lines; Homo sapiens, NCI-H716, read-out: IC50 in cell proliferation assay, cell line NCI-H716 (FGFR2-COL14A1)): 0.197 µM | IC50 (134 cancer cell lines; Homo sapiens, NCI-H1650, read-out: IC50 in cell proliferation assay, NCI-H1650 cell line (EGFR exon19del)): > 31.6 µM | IC50 (134 cancer cell lines; Homo sapiens, NCI-H1975, read-out: IC50 in cell proliferation assay, NCI-H1975 cell line (EGFR p.L858R + p.T790M)): 1.92 µM | IC50 (134 cancer cell lines; Homo sapiens, NCI-H2228, read-out: IC50 in cell proliferation assay, NCI-H2228 cell line (EML4-ALK)): 0.294 µM | IC50 (134 cancer cell lines; Homo sapiens, OVCAR-3, read-out: IC50 in cell proliferation assay, cell line OVCAR-3): > 31.6 µM | IC50 (134 cancer cell lines; Homo sapiens, PFSK-1, read-out: IC50 in cell proliferation assay, cell line PFSK-1): > 31.6 µM | IC50 (134 cancer cell lines; Homo sapiens, RL95-2, read-out: IC50 in cell proliferation assay, cell line RL95-2 (EGFR p.A289V)): 0.012 µM | IC50 (134 cancer cell lines; Homo sapiens, RPMI-7951, read-out: IC50 in cell proliferation assay, cell line RPMI-7951 (BRAF p.V600E)): 0.143 µM | IC50 (134 cancer cell lines; Homo sapiens, RS4-11, read-out: IC50 in cell proliferation assay, cell line RS4;11): 18.2 µM | IC50 (134 cancer cell lines; Homo sapiens, Rec1, read-out: IC50 in cell proliferation assay, cell line REC-1): > 31.6 µM | IC50 (134 cancer cell lines; Homo sapiens, SHP77, read-out: IC50 in cell proliferation assay, cell line SHP-77): > 31.6 µM | IC50 (134 cancer cell lines; Homo sapiens, SK-BR-3, read-out: IC50 in cell proliferation assay, cell line SK-BR-3 (ERBB2 amplification)): > 31.6 µM | IC50 (134 cancer cell lines; Homo sapiens, SK-N-AS, read-out: IC50 in cell proliferation assay, cell line SK-N-AS): 0.02 µM | IC50 (134 cancer cell lines; Homo sapiens, SK-N-FI, read-out: IC50 in cell proliferation assay, cell line SK-N-FI): 8.41 µM | IC50 (134 cancer cell lines; Homo sapiens, SK-N-MC, read-out: IC50 in cell proliferation assay, cell line SK-N-MC): > 31.6 µM | IC50 (134 cancer cell lines; Homo sapiens, SK-N-SH, read-out: IC50 in cell proliferation assay, cell line SK-N-SH (ALK p.F1174L)): 0.066 µM | IC50 (134 cancer cell lines; Homo sapiens, SNU-5, read-out: IC50 in cell proliferation assay, cell line SNU-5 (MET amplification)): 1.31 µM | IC50 (134 cancer cell lines; Homo sapiens, SNU-16, read-out: IC50 in cell proliferation assay, cell line SNU-16 (FGFR2 amplification)): > 31.6 µM | IC50 (134 cancer cell lines; Homo sapiens, SNU-C2B, read-out: IC50 in cell proliferation assay, cell line SNU-C2B (EGFR p.R165Q)): 0.036 µM | IC50 (134 cancer cell lines; Homo sapiens, SU-DHL-1, read-out: IC50 in cell proliferation assay, cell line SU-DHL-1 (NPM1-ALK)): 7.71 µM | IC50 (134 cancer cell lines; Homo sapiens, SU-DHL-6, read-out: IC50 in cell proliferation assay, cell line SU-DHL-6): > 31.6 µM | IC50 (134 cancer cell lines; Homo sapiens, SUP-T1, read-out: IC50 in cell proliferation assay, cell line SUP-T1): > 31.6 µM | IC50 (134 cancer cell lines; Homo sapiens, SW48, read-out: IC50 in cell proliferation assay, cell line SW48 (EGFR p.G719S)): 0.034 µM | IC50 (134 cancer cell lines; Homo sapiens, SW480, read-out: IC50 in cell proliferation assay, cell line SW480): 0.029 µM | IC50 (134 cancer cell lines; Homo sapiens, SW626, read-out: IC50 in cell proliferation assay, cell line SW626): 0.044 µM | IC50 (134 cancer cell lines; Homo sapiens, SW780, read-out: IC50 in cell proliferation assay, cell line SW780 (FGFR3-BAIAP2L1)): 0.447 µM | IC50 (134 cancer cell lines; Homo sapiens, SW837, read-out: IC50 in cell proliferation assay, cell line SW837): 0.22 µM | IC50 (134 cancer cell lines; Homo sapiens, SW872, read-out: IC50 in cell proliferation assay, cell line SW872 (BRAF p.V600E)): 0.025 µM | IC50 (134 cancer cell lines; Homo sapiens, SW900, read-out: IC50 in cell proliferation assay, cell line SW900): 0.035 µM | IC50 (134 cancer cell lines; Homo sapiens, SW948, read-out: IC50 in cell proliferation assay, cell line SW948): 0.062 µM | IC50 (134 cancer cell lines; Homo sapiens, SW982, read-out: IC50 in cell proliferation assay, cell line SW982 (BRAF p.V600E)): 0.972 µM | IC50 (134 cancer cell lines; Homo sapiens, SW-620, read-out: IC50 in cell proliferation assay, cell line SW620): 0.024 µM | IC50 (134 cancer cell lines; Homo sapiens, T98G, read-out: IC50 in cell proliferation assay, cell line T98G): > 31.6 µM | IC50 (134 cancer cell lines; Homo sapiens, TCC-SUP, read-out: IC50 in cell proliferation assay, cell line TCCSUP): > 31.6 µM | IC50 (134 cancer cell lines; Homo sapiens, THP-1, read-out: IC50 in cell proliferation assay, cell line THP-1): 0.025 µM | IC50 (134 cancer cell lines; Homo sapiens, U2OS, read-out: IC50 in cell proliferation assay, cell line U2OS): 10.6 µM | IC50 (134 cancer cell lines; Homo sapiens, U-87 MG, read-out: IC50 in cell proliferation assay, cell line U-87MG ATCC): 1.09 µM | IC50 (134 cancer cell lines; Homo sapiens, U-118-MG, read-out: IC50 in cell proliferation assay, cell line U-118MG): > 31.6 µM | IC50 (134 cancer cell lines; Homo sapiens, UMUC3, read-out: IC50 in cell proliferation assay, cell line UM-UC-3): 0.801 µM | IC50 (134 cancer cell lines; Hs766T, read-out: IC50 in cell proliferation assay, Hs 766T cell line): 0.022 µM | IC50 (134 cancer cell lines; L-82, read-out: IC50 in cell proliferation assay, L-82 cell line (NPM1-ALK)): 0.95 µM | IC50 (134 cancer cell lines; Rh30, read-out: IC50 in cell proliferation assay, cell line Rh30): > 31.6 µM | IC50 (134 cancer cell lines; read-out: IC50 in cell proliferation assay, 11-18 cell line (EGFR p.L858R)): > 31.6 µM | IC50 (134 cancer cell lines; read-out: IC50 in cell proliferation assay, Hs 852.T cell line): 0.345 µM | IC50 (134 cancer cell lines; read-out: IC50 in cell proliferation assay, JAR cell line): > 31.6 µM | IC50 (134 cancer cell lines; read-out: IC50 in cell proliferation assay, cell line 5637): 8 µM | IC50 (134 cancer cell lines; read-out: IC50 in cell proliferation assay, cell line A-388): > 31.6 µM | IC50 (134 cancer cell lines; read-out: IC50 in cell proliferation assay, cell line DB): > 31.6 µM | IC50 (134 cancer cell lines; read-out: IC50 in cell proliferation assay, cell line DEL (NPM1-ALK)): > 31.6 µM | IC50 (134 cancer cell lines; read-out: IC50 in cell proliferation assay, cell line ES-2 (BRAF p.V600E)): 0.242 µM | IC50 (134 cancer cell lines; read-out: IC50 in cell proliferation assay, cell line PA-1): 0.556 µM | IC50 (134 cancer cell lines; read-out: IC50 in cell proliferation assay, cell line PC-3): > 31.6 µM | IC50 (134 cancer cell lines; read-out: IC50 in cell proliferation assay, cell line RD): 0.059 µM | IC50 (134 cancer cell lines; read-out: IC50 in cell proliferation assay, cell line RKO (BRAF p.V600E)): 0.367 µM | IC50 (134 cancer cell lines; read-out: IC50 in cell proliferation assay, cell line RL): > 31.6 µM | IC50 (134 cancer cell lines; read-out: IC50 in cell proliferation assay, cell line RT-4 (FGFR3-TACC3)): 21.3 µM | IC50 (134 cancer cell lines; read-out: IC50 in cell proliferation assay, cell line SR (NPM1-ALK)): 25.5 µM | IC50 (134 cancer cell lines; read-out: IC50 in cell proliferation assay, cell line T24): 0.092 µM | IC50 (134 cancer cell lines; read-out: IC50 in cell proliferation assay, cell line TT (RET p.C634W)): > 31.6 µM | IC50 (134 cancer cell lines; read-out: IC50 in cell proliferation assay, cell line VA-ES-BJ): > 31.6 µM | inhibition at 1 µM [1]: -3.2% | inhibition at 1 µM [2]: -4.74%
Structure (SMILES): Cn1cnc2c(F)c(Nc3ccc(Br)cc3Cl)c(C(=O)NOCCO)cc21 [selumetinib]
IC50 (AP-1060 (ETV6-NTRK3)): > 31.6 µM
